Drawing on ChEMBL document CHEMBL1155538 (Bioorg Med Chem Lett, 2010), this text covers half-life, IC50 and Ki for two compounds.

Data set [1] can be described thus: Half life in human liver microsomes. It is filed as ADME, Microsome. On the technique in general: Microsomes from liver hold many membrane-bound enzymes, among them those of drug oxidation.
A short description of data set [2]: Inhibition of tetrodotoxin-sensitive sodium channel.
For data set [3], the target named is Voltage-gated inwardly rectifying potassium channel KCNH2 (Homo sapiens, UniProt Q12809). The data set can be described thus: Displacement of [3H]dofetilide from human ERG. (In general: In a radioligand displacement assay an active substance lowers the binding of a labelled ligand.)
The target in data set [4] is Sodium-dependent serotonin transporter (Homo sapiens, UniProt P31645). Nature of the data set: biochemical.
Data set [5] has as its target Sodium-dependent noradrenaline transporter (Homo sapiens, UniProt P23975). The data set can be described thus: biochemical.
Data set [6] concerns the target Sodium-dependent dopamine transporter (Homo sapiens, UniProt Q01959). The data set can be described thus: biochemical.

Chain of Sodium-dependent noradrenaline transporter (P23975 whole entry): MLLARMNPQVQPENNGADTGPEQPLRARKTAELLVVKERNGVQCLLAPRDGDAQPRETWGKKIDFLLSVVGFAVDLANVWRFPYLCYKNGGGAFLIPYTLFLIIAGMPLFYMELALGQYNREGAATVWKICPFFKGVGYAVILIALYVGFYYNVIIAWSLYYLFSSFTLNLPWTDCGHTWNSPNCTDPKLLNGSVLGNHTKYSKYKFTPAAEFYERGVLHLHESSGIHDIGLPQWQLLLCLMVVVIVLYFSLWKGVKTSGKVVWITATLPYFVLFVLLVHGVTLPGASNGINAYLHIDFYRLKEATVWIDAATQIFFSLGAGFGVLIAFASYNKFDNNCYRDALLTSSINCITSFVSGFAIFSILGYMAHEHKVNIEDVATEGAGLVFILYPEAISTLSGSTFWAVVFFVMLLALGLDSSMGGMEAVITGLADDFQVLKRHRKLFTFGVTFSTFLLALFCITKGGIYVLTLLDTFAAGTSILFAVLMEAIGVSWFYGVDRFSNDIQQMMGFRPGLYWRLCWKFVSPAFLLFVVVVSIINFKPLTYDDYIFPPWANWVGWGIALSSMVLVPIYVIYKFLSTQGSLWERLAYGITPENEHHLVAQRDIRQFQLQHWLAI
Chain of Sodium-dependent dopamine transporter (Q01959 whole entry): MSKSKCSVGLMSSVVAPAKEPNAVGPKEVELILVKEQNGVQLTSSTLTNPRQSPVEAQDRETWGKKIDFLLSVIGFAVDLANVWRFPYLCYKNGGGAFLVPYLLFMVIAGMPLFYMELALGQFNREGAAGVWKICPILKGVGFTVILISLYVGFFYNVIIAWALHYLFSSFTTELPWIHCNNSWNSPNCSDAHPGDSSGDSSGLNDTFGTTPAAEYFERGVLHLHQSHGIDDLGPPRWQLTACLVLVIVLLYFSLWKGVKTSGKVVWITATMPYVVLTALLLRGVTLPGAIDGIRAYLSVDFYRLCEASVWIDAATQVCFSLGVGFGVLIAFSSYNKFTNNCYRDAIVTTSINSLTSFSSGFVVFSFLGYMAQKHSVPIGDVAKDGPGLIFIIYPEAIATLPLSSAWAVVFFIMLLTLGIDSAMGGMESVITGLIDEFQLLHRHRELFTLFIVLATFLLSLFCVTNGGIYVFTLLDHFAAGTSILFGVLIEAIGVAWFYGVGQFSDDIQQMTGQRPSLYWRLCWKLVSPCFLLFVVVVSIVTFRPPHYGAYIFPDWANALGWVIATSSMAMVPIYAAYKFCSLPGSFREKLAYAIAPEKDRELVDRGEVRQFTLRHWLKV
Chain of Voltage-gated inwardly rectifying potassium channel KCNH2 (Q12809 whole entry): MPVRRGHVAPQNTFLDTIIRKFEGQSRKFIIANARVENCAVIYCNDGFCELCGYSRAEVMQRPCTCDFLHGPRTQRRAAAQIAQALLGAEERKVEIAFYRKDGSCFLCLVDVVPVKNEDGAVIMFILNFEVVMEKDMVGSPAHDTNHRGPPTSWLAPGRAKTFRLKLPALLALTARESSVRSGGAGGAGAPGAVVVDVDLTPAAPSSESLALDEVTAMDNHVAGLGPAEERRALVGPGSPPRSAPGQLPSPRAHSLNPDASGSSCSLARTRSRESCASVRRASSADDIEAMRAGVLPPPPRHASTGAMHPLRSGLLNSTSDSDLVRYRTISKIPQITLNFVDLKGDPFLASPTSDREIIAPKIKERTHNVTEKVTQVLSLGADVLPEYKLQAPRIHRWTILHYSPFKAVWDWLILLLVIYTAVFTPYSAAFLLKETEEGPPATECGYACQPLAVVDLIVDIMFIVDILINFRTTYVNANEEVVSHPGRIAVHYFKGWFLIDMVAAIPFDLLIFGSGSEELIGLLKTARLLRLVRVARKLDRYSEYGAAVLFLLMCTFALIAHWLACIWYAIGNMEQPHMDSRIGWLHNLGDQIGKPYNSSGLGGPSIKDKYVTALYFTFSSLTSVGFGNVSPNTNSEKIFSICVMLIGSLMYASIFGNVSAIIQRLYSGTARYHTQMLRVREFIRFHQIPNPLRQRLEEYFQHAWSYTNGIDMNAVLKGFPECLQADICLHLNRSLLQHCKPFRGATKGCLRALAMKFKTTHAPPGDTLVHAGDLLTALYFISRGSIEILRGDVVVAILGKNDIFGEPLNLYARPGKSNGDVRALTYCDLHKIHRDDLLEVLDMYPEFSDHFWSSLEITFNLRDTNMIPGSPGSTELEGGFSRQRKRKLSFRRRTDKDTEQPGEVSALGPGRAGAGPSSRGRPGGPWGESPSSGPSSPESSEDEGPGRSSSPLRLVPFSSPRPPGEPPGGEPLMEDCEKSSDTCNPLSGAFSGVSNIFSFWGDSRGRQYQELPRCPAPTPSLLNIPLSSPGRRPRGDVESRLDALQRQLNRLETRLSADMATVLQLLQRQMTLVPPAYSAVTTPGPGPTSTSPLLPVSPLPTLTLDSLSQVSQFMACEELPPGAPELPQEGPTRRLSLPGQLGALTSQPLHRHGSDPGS
Chain of Sodium-dependent serotonin transporter (P31645 whole entry): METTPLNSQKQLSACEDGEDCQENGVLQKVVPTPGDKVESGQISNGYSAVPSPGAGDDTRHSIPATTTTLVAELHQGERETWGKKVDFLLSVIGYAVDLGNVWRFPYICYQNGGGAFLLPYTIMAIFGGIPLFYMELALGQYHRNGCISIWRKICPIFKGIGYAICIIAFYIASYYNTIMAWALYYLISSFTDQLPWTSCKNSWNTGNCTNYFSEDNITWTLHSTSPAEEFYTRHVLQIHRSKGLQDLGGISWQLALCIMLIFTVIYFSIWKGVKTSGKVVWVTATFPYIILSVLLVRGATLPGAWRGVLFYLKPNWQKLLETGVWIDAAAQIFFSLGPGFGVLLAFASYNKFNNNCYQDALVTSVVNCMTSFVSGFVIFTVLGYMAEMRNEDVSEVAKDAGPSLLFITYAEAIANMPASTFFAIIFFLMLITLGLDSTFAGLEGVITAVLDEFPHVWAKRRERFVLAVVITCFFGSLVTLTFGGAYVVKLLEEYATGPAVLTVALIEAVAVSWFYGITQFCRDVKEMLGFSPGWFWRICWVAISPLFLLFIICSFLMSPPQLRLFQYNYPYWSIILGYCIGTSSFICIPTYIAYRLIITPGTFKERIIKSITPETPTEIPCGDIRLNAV

What is called half-life is the time in which the quantity being followed falls by half. Read a high half-life as slow decline. One may read the IC50 as the concentration at which inhibition is half-maximal. Regarding `CC(C)CN(C(=O)c1cccc(Cl)c1Cl)[C@H]1CCNC1`, the half-life in data set [1] was above 2 h. The compound further displayed an IC50 in data set [2] of 8.55 µM.

A word on the Ki: it is a measure of affinity in units of concentration, obtained from inhibition or displacement. High values mean a looser hold on the target, low ones a stronger hold on the target. As to `c1ccc(C(Cc2cccc3c2OCC3)N2CCNCC2)cc1` (stereo unspecified), the half-maximal inhibitory concentration (IC50) in data set [3] was determined as 21.4 µM. The Ki in data set [4] was 0.008 µM; in data set [5] it was 0.34 µM; in data set [6], above 3.16 µM.
